{"source": "ChEMBL document CHEMBL6078693", "about": "“Move over COVID, Tuberculosis Is Once again the Leading Cause of Death from a Single Infectious Disease” (J Med Chem, 2024)", "key": {"[1]": {"test_system": "Mycobacterium tuberculosis", "assay": "Antimycobacterial activity against Mycobacterium tuberculosis H37Rv assessed as reduction in bacterial growth incubated for 7 days by resazurin dye based assay", "type": "functional", "settings": "168 h, time 7 day"}, "[2]": {"test_system": "Mycobacterium tuberculosis", "assay": "Antimycobacterial activity against Mycobacterium tuberculosis", "type": "functional, organism-based"}}, "data": [{"smiles": "NC[C@H]1OB(O)c2c(OCCO)ccc(Cl)c21", "note": "[GANFEBOROLE]", "values": [{"measurement": "MIC", "setting": "[1]", "value": 0.08, "unit": "µM"}, {"measurement": "IC50", "setting": "[2]", "value": 0.2, "unit": "µM"}]}]}
